# Results reported in PMC8901119 (Chemical Science, 2021).
# Like-named read-outs stand apart in the source and are kept apart here. Starred links: 1 amine or outer side, 2 acyl side, 3 side chain; linkers in the order of their positions; H or OH if unused. Non-standard residues stand in square brackets, D forms with d. Residues, ends and D or L forms follow the SMILES beside them. Ala(7-MeO-coumarin-4-yl) = COc1ccc2c(C[C@H](N)C(=O)O)cc(=O)oc2c1; X1 = C[C@H](NC(=S)[C@H](CCCNC(=N)N)N[*:1])C(=O)[*:2]; X2 = C[C@H](NC(=S)[C@H](CCCCN)N[*:1])C(=O)[*:2]
# How the values were obtained:
# [1] = biological target: Cts L (Homo sapiens, UniProt P07711); assay: Cathepsin L inhibition assay with Z-FR-AMC
# Cts L, sequence (P07711 114-333): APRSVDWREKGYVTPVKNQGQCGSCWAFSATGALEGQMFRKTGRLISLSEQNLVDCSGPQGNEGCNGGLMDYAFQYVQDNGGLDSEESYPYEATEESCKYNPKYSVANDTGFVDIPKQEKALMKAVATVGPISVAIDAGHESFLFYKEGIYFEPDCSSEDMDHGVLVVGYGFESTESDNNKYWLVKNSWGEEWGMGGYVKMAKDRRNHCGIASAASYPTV
# Protocol: The peptide inhibitors were pre-incubated with the appropriate proteases in the assay buffer for 10 min to ensure full interactions prior being added to the fluorogenic substrates. The fluorescence of the reaction was monitored as a function of time at 460 nm with an excitation wavelength of 380 nm by a Tecan M1000 plate reader. Each assay was done in triplicates to ensure reproducibility.
# Cathepsin L Inhibition Assay. For cathepsin L (Cts L, ≥ 0.5 units/mg protein, solution; from human liver), various concentrations of the substrate Z-FR-AMC (1 μM, 2 μM, 3 μM, 5 μM, 7
# μM, 10 μM, 15 μM, and 20 μM) were reacted with 37.9 nM Cts L in a 96-well plate at 27 °C.
# Assay buffer consisted of100 mM sodium acetate, 100 mM NaCl, 1 mM EDTA, and 5 mM DTT
# with this KSP1 peptide were conducted in 12.3 mM Na2HPO4, 87.7 mM NaH2PO4, 100 mM NaCl,
# 5 mM DTT, 1 mM EDTA, pH 6.0 at 27 °C – the buffer condition used for this peptide construct
# 3 A stock solution of 220 μg/mL enzyme in 20 mM malonate, 1 mM EDTA, 400
# mM NaCl, pH 5.5 was diluted with the assay buffer. Peptide (inhibitor) stock solutions were
# prepared in a minimal amount of Milli-Q water then diluted to the desired concentrations with the
# assay buffer. A 5 mM stock solution of the fluorogenic substrate Z-FR-AMC (Bachem; Torrance, CA, USA) was initially prepared in DMSO and diluted with assay buffer. The diluted solution of
# Cts L was incubated in the assay buffer with or without the peptide inhibitor at room temperature
# for 10 min. For each 50 μL reaction, 25 μL of this Cts L solution (either with or without the peptide inhibitor) was added to 25 μL diluted Z-FR-AMC substrate to initiate the reaction. The fluorescence of the reaction was monitored as a function of time at 460 nm with an excitation wavelength of 380 nm on the Tecan M1000 plate reader. Three independent trials were performed
# for each assay to ensure reproducibility. For analysis, the fluorescence data was converted to rates
# of proteolysis in terms of concentration (μM/min) by a conversion factor calculated from a linear
# fit of the endpoint fluorescence at complete hydrolysis versus substrate concentration. The initial reaction rate was then calculated by extracting the slope of a linear fit of the first 2 min of the
# progress curve (Figures S13-S19). These curves were fit to a Michaelis-Menten enzyme kinetic
# Kinetics Analysis of the Peptide Inhibitors of Cathepsin L, V, K, B, and S
# For Cts L, from initial evaluation of the kinetic parameters obtained from fitting to Michaelis-
# data from Z-FR-AMC inhibition assays with Cts L was thus further fitted to a general Mixed
# Inhibition Model in GraphPad Prism version 8.4.3 (GraphPad Software; La Jolla, CA), using
# A mixed Inhibition Mechanism for Reversible Inhibitors. Abbreviations: E: enzymes;
# S: substrate; I: inhibitor; P: product; EI: enzyme-inhibitor complex; ESI: enzyme-substrate-
# inhibitor complex; KI: dissociation constant for the EI complex; αK I (also known as KI'):
# dissociation constant for the ESI complex.
# This general mixed-inhibition model uses a global fitting in which Vmax, KM, KI, constant α and are
# shared. The constant α here determines the degree to which inhibitor binding changes the affinity
# of the enzyme for substrate; the value of α is always greater than zero.5, 6 An α = 1 (K I = αKI)
# complex (ES); the model then becomes identical to a noncompetitive inhibition model.5, 6 When α
# > 1, the inhibitor binds preferentially to the free enzyme (E); if α = ∞, the inhibitor binds almost
# exclusively the free enzyme and this model becomes identical to competitive inhibition.5, 6 If 0 <α
# [2] = Stability of peptides in HepG2 whole cell lysate; type: in vitro ADME; settings: human
# Protocol: Stability of Peptides in HepG2 Whole Cell Lysate
# Using the same conditions as the previous Cts L Activity Assay in HepG2 Whole Cell Lysate, 50 μL peptide (either R1A or RS1A; final concentration 20 μM) was incubated in 50 μL HepG2 whole cell lysate (to a final concentration of 0.05 mg/mL) in the assay buffer for different time points.
# The all-amide peptide, R 1A, was incubated for t = 0, 5, 10, 15, 20, and 30 minutes. The thioamide peptide, RS1A, was incubated for t = 0, 2, 6, 8, 10, and 24 hours. After incubation for the desired amount of time, 100 μL methanol was added to the mixture and incubated at -20 °C for 10 minutes before spinning down at 13,000 rpm for 10 minutes. Then, 180 μL of each mixture was further diluted with 220 μL Milli-Q water to a total volume of 400 μL before adding 1 μL 0.42 mM coumarin internal standard for HPLC analysis. The coumarin internal standard was used to normalize the amount of intact peptide in each sample. A Phenomenex Luna® Omega 5 µm PS C18 100 Å analytical column was used to analyze all samples using the same gradient of 20-40 % B over 20 minutes (Solvent A: 0.1% TFA in Milli-Q water; Solvent B: 0.1% TFA in acetonitrile).
# Representative HPLC spectra (325 nm) at different time points were also shown to confirm the stability of the peptides in HepG2 whole cell lysate (Figure S26 A & B). MALDI MS was used to confirm the mass from each fraction from the HPLC from experiment with the all-amide peptide (R 1A – expected [M+H]+ = 1133.51 m/z) and the thioamide peptide ( RS1A – expected [M+H]+ = 1149.48 m/z). To calculate the percent intact peptide for each sample, the average ratio of intact peptide to internal standard was compared to that ratio at t = 0. For each time point, the experiment
# [3] = system: cathepsin L (Cts L); settings: human, 27 °C, up to 2-hour
# [4] = system: cathepsin S (Cts S); settings: 27 °C, up to 100 min
# [5] = system: cathepsin B (Cts B); settings: human, 27 °C, up to 100 min
# [6] = system: cathepsin V (Cts V); settings: 27 °C, up to 100 min
# [7] = system: cathepsin K (Cts K); settings: 27 °C, up to 100 min
# [8] = system: cathepsin L (Cts L); settings: human, 27 °C, up to 100 min
# [9] = Cts L, mixed inhibition model fit, Z-FR-AMC, pH 5.5, 27 °C
compound,measurement,setting,value
"COc1ccc2c(C[C@H](NC(=O)[C@H](C)NC(=O)[C@H](C)NC(=O)[C@H](C)NC(=O)[C@H](CCCCN)NC(=O)[C@H](Cc3ccccc3)NC(=O)[C@H](CC(C)C)NC(=O)[C@H](Cc3c[nH]cn3)NC(=O)[C@@H](N)Cc3cc(=O)oc4cc(OC)ccc34)C(=O)O)cc(=O)oc2c1 [K3A, μHLFKAAAμ] (H-[Ala(7-MeO-coumarin-4-yl)]HLFKAAA[Ala(7-MeO-coumarin-4-yl)]-OH)",Ki,[1]; [9],3050 ± 640 nM
"COc1ccc2c(C[C@H](NC(=O)[C@H](C)NC(=O)[C@H](C)NC(=O)[C@H](C)NC(=S)[C@H](CCCCN)NC(=O)[C@H](Cc3ccccc3)NC(=O)[C@H](CC(C)C)NC(=O)[C@H](Cc3c[nH]cn3)NC(=O)[C@@H](N)Cc3cc(=O)oc4cc(OC)ccc34)C(=O)O)cc(=O)oc2c1 [K^S3A, μHLFK^SAAAμ] (H-[Ala(7-MeO-coumarin-4-yl)]HLF[X2]AA[Ala(7-MeO-coumarin-4-yl)]-OH)",Ki,[1]; [9],600 ± 150 nM
"COc1ccc2c(C[C@H](NC(=O)[C@H](C)NC(=O)[C@H](C)NC(=O)[C@H](C)NC(=S)[C@H](CCCCN)NC(=O)[C@H](CC(C)C)NC(=O)[C@H](CC(C)C)NC(=O)[C@@H](N)Cc3cc(=O)oc4cc(OC)ccc34)C(=O)O)cc(=O)oc2c1 [K^SP1, μLLK^SAAAμ] (H-[Ala(7-MeO-coumarin-4-yl)]LL[X2]AA[Ala(7-MeO-coumarin-4-yl)]-OH; N-terminus and C-terminus assumed)",Ki,"[1]; Cts L (preliminary data), phosphate buffer pH 6.0, 27 °C, preliminary",870 nM
"COc1ccc2c(C[C@H](NC(=O)[C@H](C)NC(=O)[C@H](CCCNC(=N)N)NC(=O)[C@H](Cc3ccccc3)NC(=O)[C@H](CC(C)C)NC(=O)[C@H](Cc3c[nH]cn3)NC(=O)[C@@H](N)Cc3cc(=O)oc4cc(OC)ccc34)C(=O)O)cc(=O)oc2c1 [R1A, μHLFRAμ] (H-[Ala(7-MeO-coumarin-4-yl)]HLFRA[Ala(7-MeO-coumarin-4-yl)]-OH)",half-life at 20 μM,"[2]; 20 μM peptide, 0.05 mg/mL lysate, HPLC",7.2 min
same,"remaining at 5 min, 20 μM","[2]; HepG2 lysate, 5 mins, read-out: % intact peptide",46%
same,"remaining at 10 min, 20 μM","[2]; HepG2 lysate, 10 mins, read-out: % intact peptide",36%
same,"remaining at 0.25 h, 20 μM","[2]; HepG2 lysate, 15 mins, read-out: % intact peptide",32.8%
same,"remaining at 20 min, 20 μM","[2]; HepG2 lysate, 20 mins, read-out: % intact peptide",21.7%
same,"remaining at 0.5 h, 20 μM","[2]; HepG2 lysate, 30 mins, read-out: % intact peptide",6.92%
"COc1ccc2c(C[C@H](NC(=O)[C@H](C)NC(=O)[C@H](C)NC(=O)[C@H](C)NC(=O)[C@H](CCCNC(=N)N)NC(=O)[C@H](Cc3ccccc3)NC(=O)[C@H](CC(C)C)NC(=O)[C@H](Cc3c[nH]cn3)NC(=O)[C@@H](N)Cc3cc(=O)oc4cc(OC)ccc34)C(=O)O)cc(=O)oc2c1 [R3A, μHLFRAAAμ] (H-[Ala(7-MeO-coumarin-4-yl)]HLFRAAA[Ala(7-MeO-coumarin-4-yl)]-OH)",Ki,[1]; [9],1680 ± 490 nM
"COc1ccc2c(C[C@H](NC(=O)[C@H](C)NC(=S)[C@H](CCCNC(=N)N)NC(=O)[C@H](Cc3ccccc3)NC(=O)[C@H](CC(C)C)NC(=O)[C@H](Cc3c[nH]cn3)NC(=O)[C@@H](N)Cc3cc(=O)oc4cc(OC)ccc34)C(=O)O)cc(=O)oc2c1 [R^S1A, μHLFR^SAμ] (H-[Ala(7-MeO-coumarin-4-yl)]HLF[X1][Ala(7-MeO-coumarin-4-yl)]-OH)","remaining at 2 h, 20 μM","[2]; HepG2 lysate, 2 hours, read-out: % intact peptide",86.3%
same,"remaining at 6 h, 20 μM","[2]; HepG2 lysate, 6 hours, read-out: % intact peptide",75.7%
same,"remaining at 8 h, 20 μM","[2]; HepG2 lysate, 8 hours, read-out: % intact peptide",80.7%
same,"remaining at 10 h, 20 μM","[2]; HepG2 lysate, 10 hours, read-out: % intact peptide",79.9%
same,"remaining at 24 h, 20 μM","[2]; HepG2 lysate, 24 hours, read-out: % intact peptide",61.3%
"COc1ccc2c(C[C@H](NC(=O)[C@H](C)NC(=O)[C@H](C)NC(=O)[C@H](C)NC(=S)[C@H](CCCNC(=N)N)NC(=O)[C@H](Cc3ccccc3)NC(=O)[C@H](CC(C)C)NC(=O)[C@H](Cc3c[nH]cn3)NC(=O)[C@@H](N)Cc3cc(=O)oc4cc(OC)ccc34)C(=O)O)cc(=O)oc2c1 [R^S3A, μHLFR^SAAAμ] (H-[Ala(7-MeO-coumarin-4-yl)]HLF[X1]AA[Ala(7-MeO-coumarin-4-yl)]-OH)",Ki,[1]; [9],520 ± 120 nM
HLFR^SA,not cleaved,[3],remained intact after the 2-hour assay
μHLFKAAAμ (H-[Ala(7-MeO-coumarin-4-yl)]HLFKAAA[Ala(7-MeO-coumarin-4-yl)]-OH; SMILES COc1ccc2c(C[C@H](NC(=O)[C@H](C)NC(=O)[C@H](C)NC(=O)[C@H](C)NC(=O)[C@H](CCCCN)NC(=O)[C@H](Cc3ccccc3)NC(=O)[C@H](CC(C)C)NC(=O)[C@H](Cc3c[nH]cn3)NC(=O)[C@@H](N)Cc3cc(=O)oc4cc(OC)ccc34)C(=O)O)cc(=O)oc2c1),cleaved bond,[4],K-A
same,cleaved bond,[5],K-A
μHLFK^SAAAμ (H-[Ala(7-MeO-coumarin-4-yl)]HLF[X2]AA[Ala(7-MeO-coumarin-4-yl)]-OH; SMILES COc1ccc2c(C[C@H](NC(=O)[C@H](C)NC(=O)[C@H](C)NC(=O)[C@H](C)NC(=S)[C@H](CCCCN)NC(=O)[C@H](Cc3ccccc3)NC(=O)[C@H](CC(C)C)NC(=O)[C@H](Cc3c[nH]cn3)NC(=O)[C@@H](N)Cc3cc(=O)oc4cc(OC)ccc34)C(=O)O)cc(=O)oc2c1),not cleaved,[4],No cleavage
same,not cleaved,[6],No cleavage
same,not cleaved,[7],No cleavage
same,cleaved bond,[5],A-A
same,cleaved bond,[8],A-A
μHLFRAAAμ (H-[Ala(7-MeO-coumarin-4-yl)]HLFRAAA[Ala(7-MeO-coumarin-4-yl)]-OH; SMILES COc1ccc2c(C[C@H](NC(=O)[C@H](C)NC(=O)[C@H](C)NC(=O)[C@H](C)NC(=O)[C@H](CCCNC(=N)N)NC(=O)[C@H](Cc3ccccc3)NC(=O)[C@H](CC(C)C)NC(=O)[C@H](Cc3c[nH]cn3)NC(=O)[C@@H](N)Cc3cc(=O)oc4cc(OC)ccc34)C(=O)O)cc(=O)oc2c1),cleaved bond,[4],R-A
same,cleaved bond,[5],R-A
μHLFR^SAAAμ (H-[Ala(7-MeO-coumarin-4-yl)]HLF[X1]AA[Ala(7-MeO-coumarin-4-yl)]-OH; SMILES COc1ccc2c(C[C@H](NC(=O)[C@H](C)NC(=O)[C@H](C)NC(=O)[C@H](C)NC(=S)[C@H](CCCNC(=N)N)NC(=O)[C@H](Cc3ccccc3)NC(=O)[C@H](CC(C)C)NC(=O)[C@H](Cc3c[nH]cn3)NC(=O)[C@@H](N)Cc3cc(=O)oc4cc(OC)ccc34)C(=O)O)cc(=O)oc2c1),not cleaved,[4],No cleavage
same,not cleaved,[6],No cleavage
same,not cleaved,[7],No cleavage
same,cleaved bond,[5],A-A
same,cleaved bond,[8],A-A
μHLFR^SAμ,not cleaved,[4],No cleavage
same,not cleaved,[6],No cleavage
same,not cleaved,[7],No cleavage
same,not cleaved,[5],No cleavage
same,not cleaved,[8],No cleavage
